# Experimental data as given in patent publication US8574563B2 (Bristol-Myers Squibb Company, priority 2006, dated 2013).
# Test system: HCV 1b-377-neo replicon cells
# Test: HCV replicon assay, HCV 1b-377-neo replicon cells (1b FRET)
# Format: cell-based, Hepatitis C virus genotype 1b
# Conditions: HCV 1b-377-neo replicon cells; HCV 1b genotype; read-out: EC50 range against HCV 1b (Table 2, Range)
# Summary of the method: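 FRET-based replicon assay in HCV 1b-377-neo cells, including a comparison line carrying the NS5A Y2065H mutation that confers resistance to a reference compound.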
row,Compound,EC50
1,COC(=O)N[C@@H](C(=O)N1CCC[C@H]1c1ncc(-c2ccc(-c3ccc(-c4cnc([C@@H]5CCCN5C(=O)[C@H](NC(=O)OC)c5ccccc5)[nH]4)cc3C)nc2)[nH]1)c1ccccc1 [Example 138],0.001 to 0.999 nM
2,"(1R)-N,N-dimethyl-2-((2S)-2-(5-(4′-(2-((2S)-1- ((2R)-2-(4-morpholinyl)-2-phenylacetyl)-2- pyrrolidinyl)-1H-imidazol-5-yl)-4-biphenylyl)- 1H-imidazol-2-yl)-1-pyrrolidinyl)-2-oxo-1- phenylethanamine [Example 89]",0.001 to 0.999 nM

# Same assay, conditions: Hepatitis C virus, HCV 1b-377-neo replicon cells; HCV 1b genotype; read-out: EC50 range against HCV 1b (Table 2, Range)
row,Compound,EC50
1,"CNC(=O)c1nc([C@@H]2CCCN2C(=O)[C@H](NC(=O)OC)c2ccccc2)[nH]c1-c1ccc(-c2ccc(-c3cnc([C@@H]4CCCN4C(=O)[C@H](NC(=O)OC)c4ccccc4)[nH]3)cc2)cc1 [Example J25, methyl ((1R)-2-((2S)-2-(5-(4′-(2-((2S)-1-((2R)-2-((methoxycarbonyl)amino)-2-phenylacetyl)-2-pyrrolidinyl)-1H-imidazol-5-yl)-4-biphenylyl)-4-(methylcarbamoyl)-1H-imidazol-2-yl)-1-pyrrolidinyl)-2-oxo-1-phenylethyl)carbamate]",0.001 to 0.999 nM
2,"COC(=O)N[C@H](C(=O)N1[C@@H](C)CC[C@H]1c1ncc(-c2ccc(-c3ccc(-c4cnc([C@@H]5CC[C@H](C)N5C(=O)[C@@H](NC(=O)OC)C(C)C)[nH]4)cc3)cc2)[nH]1)C(C)C [Example M151, methyl ((1S)-1-(((2S,5S)-2-(4-(4′-(2-((2S,5S)-1-((2S)-2-((methoxycarbonyl)amino)-3-methylbutanoyl)-5-methyl-2-pyrrolidinyl)-1H-imidazol-4-yl)-4-biphenylyl)-1H-imidazol-2-yl)-5-methyl-1-pyrrolidinyl)carbonyl)-2-methylpropyl)carbamate]",0.001 to 0.999 nM
3,"CC1(O)CCN([C@@H](C(=O)N2CCC[C@H]2c2ncc(-c3ccc(-c4ccc(-c5cnc([C@@H]6CCCN6C(=O)[C@@H](c6ccccc6)N6CCC(C)(O)CC6)[nH]5)cc4)cc3)[nH]2)c2ccccc2)CC1 [Example 24-2, 1,1′-(4,4′-biphenyldiylbis(1H-imidazole-5,2-diyl(2S)-2,1-pyrrolidinediyl((1R)-2-oxo-1-phenyl-2,1-ethanediyl)))bis(4-methyl-4-piperidinol)]",0.001 to 0.999 nM
4,"COC(=O)N[C@@H](C(=O)N1CCC[C@H]1c1ncc(-c2ccc(-c3ccc(-c4cnc([C@@H]5CCCN5C(=O)C(c5cccc(F)c5)N(C)C)[nH]4)cc3)cc2)[nH]1)c1ccccc1 (stereo partly drawn) [Example 84-60, methyl ((1R)-2-((2S)-2-(5-(4′-(2-((2S)-1-((dimethylamino)(3-fluorophenyl)acetyl)-2-pyrrolidinyl)-1H-imidazol-5-yl)-4-biphenylyl)-1H-imidazol-2-yl)-1-pyrrolidinyl)-2-oxo-1-phenylethyl)carbamate]",0.001 to 0.999 nM
5,"COC(=O)N[C@H](C(=O)N1CCC[C@H]1c1ncc(-c2ccc(-c3ccc(-c4cnc([C@@H]5CCCN5C(=O)[C@@H](Nc5cccnc5)C(C)C)[nH]4)cc3)cc2)[nH]1)C(C)C [cj-20, methyl ((1S)-2-methyl-1-(((2S)-2-(5-(4′-(2-((2S)-1-(N-3-pyridinyl-L-valyl)-2-pyrrolidinyl)-1H-imidazol-5-yl)-4-biphenylyl)-1H-imidazol-2-yl)-1-pyrrolidinyl)carbonyl)propyl)carbamate]",0.001 to 0.999 nM
6,"CCN(CC)[C@@H](C(=O)N1CCC[C@H]1c1ncc(-c2ccc(-c3ccc(-c4cnc([C@@H]5CCCN5C(=O)[C@H](C)NC(=O)OC)[nH]4)cc3)cc2)[nH]1)c1ccccc1 [Example M49, methyl ((1S)-2-((2S)-2-(5-(4′-(2-((2S)-1-((2R)-2-(diethylamino)-2-phenylacetyl)-2-pyrrolidinyl)-1H-imidazol-5-yl)-4-biphenylyl)-1H-imidazol-2-yl)-1-pyrrolidinyl)-1-methyl-2-oxoethyl)carbamate]",1 to 99 nM
7,"Cc1cc(CC(=O)N2CCC[C@H]2c2ncc(-c3ccc(-c4ccc(-c5cnc([C@@H]6CCCN6C(=O)[C@@H](c6ccccc6)N(C)C)[nH]5)cc4)cc3)[nH]2)n[nH]1 [Example 94-19, (1R)-N,N-dimethyl-2-((2S)-2-(5-(4′-(2-((2S)-1-((5-methyl-1H-pyrazol-3-yl)acetyl)-2-pyrrolidinyl)-1H-imidazol-5-yl)-4-biphenylyl)-1H-imidazol-2-yl)-1-pyrrolidinyl)-2-oxo-1-phenylethanamine]",0.001 to 0.999 nM
8,"COC(=O)N[C@H]1CC[C@@H](C(=O)N2CCC[C@H]2c2ncc(-c3ccc(-c4ccc(-c5cnc([C@@H]6CCCN6C(=O)[C@H]6CC[C@@H](NC(=O)OC)CC6)[nH]5)cc4)cc3)[nH]2)CC1 [cj-150, dimethyl (4,4′-biphenyldiylbis(1H-imidazole-5,2-diyl(2S)-2,1-pyrrolidinediylcarbonylcis-4,1-cyclohexanediyl))biscarbamate]",1 to 99 nM
9,"CCN(CC)[C@@H](C(=O)N1CC(F)(F)C[C@H]1c1ncc(-c2ccc(-c3ccc(-c4cnc([C@@H]5CC(F)(F)CN5C(=O)[C@@H](c5ccccc5)N(CC)CC)[nH]4)cc3)cc2)[nH]1)c1ccccc1 [OL-9, (1R,1′R)-2,2′-(4,4′-biphenyldiylbis(1H-imidazole-4,2-diyl((2S)-4,4-difluoro-2,1-pyrrolidinediyl)))bis(N,N-diethyl-2-oxo-1-phenylethanamine)]",0.001 to 0.999 nM
10,"C[C@H](O)C(=O)N1CCC[C@H]1c1nc(-c2ccc(-c3ccc(-c4cnc([C@@H]5CCCN5C(=O)[C@H](C)O)[nH]4)cc3)cc2)c[nH]1 [Example F27, (2S)-1-((2S)-2-(4-(4′-(2-((2S)-1-((2S)-2-hydroxypropanoyl)-2-pyrrolidinyl)-1H-imidazol-5-yl)-4-biphenylyl)-1H-imidazol-2-yl)-1-pyrrolidinyl)-1-oxo-2-propanol]",1 to 99 nM
11,"COC(=O)N[C@@H](C(=O)N1CCC[C@H]1c1ncc(-c2ccc(-c3ccc(-c4cnc([C@@H]5CCCN5C(=O)C(c5cccc(C(F)(F)F)c5)N(C)C)[nH]4)cc3)cc2)[nH]1)c1ccccc1 (stereo partly drawn) [Example 84-54, methyl ((1R)-2-((2S)-2-(5-(4′-(2-((2S)-1-((dimethylamino)(3-(trifluoromethyl)phenyl)acetyl)-2-pyrrolidinyl)-1H-imidazol-5-yl)-4-biphenylyl)-1H-imidazol-2-yl)-1-pyrrolidinyl)-2-oxo-1-phenylethyl)carbamate]",0.001 to 0.999 nM
12,"COC(=O)N[C@H](C(=O)N1CCC[C@H]1c1ncc(-c2ccc(-c3ccc(-c4cnc([C@@H]5CCCN5C(=O)[C@@H](NC(=O)OC)C(C)C)[nH]4)c(F)c3)cc2)[nH]1)C(C)C [Example D40, methyl ((1S)-1-(((2S)-2-(5-(3′-fluoro-4′-(2-((2S)-1-((2S)-2-((methoxycarbonyl)amino)-3-methylbutanoyl)-2-pyrrolidinyl)-1H-imidazol-5-yl)-4-biphenylyl)-1H-imidazol-2-yl)-1-pyrrolidinyl)carbony)-2-methylpropyl) carbamate]",0.001 to 0.999 nM
13,"CCN(CC)[C@@H](C(=O)N1CCC[C@H]1c1ncc(-c2ccc(-c3ccc(-c4cnc([C@@H]5CCCN5C(=O)[C@@H](NC5=NCCN5)C(C)C)[nH]4)cc3)cc2)[nH]1)c1ccccc1 [cj-11g, N-((1S)-1-(((2S)-2-(5-(4′-(2-((2S)-1-((2R)-2-(diethylamino)-2-phenylacetyl)-2-pyrrolidinyl)-1H-imidazol-5-yl)-4-biphenylyl)-1H-imidazol-2-yl)-1-pyrrolidinyl)carbonyl)-2-methylpropyl)-4,5-dihydro-1H-imidazol-2-amine]",1 to 99 nM
14,"COC(=O)N[C@@H](C(=O)N1CCC[C@H]1c1ncc(-c2ccc(-c3ccc(-c4cnc([C@@H]5CCCN5C(=O)C5(C)CCN(C(=O)OC(C)(C)C)CC5)[nH]4)cc3)cc2)[nH]1)c1ccccc1 [Example 84-12, tert-butyl 4-(((2S)-2-(5-(4′-(2-((2S)-1-((2R)-2-((methoxycarbonyl)amino)-2-phenylacetyl)-2-pyrrolidinyl)-1H-imidazol-5-yl)-4-biphenylyl)-1H-imidazol-2-yl)-1-pyrrolidinyl)carbonyl)-4-methyl-1-piperidinecarboxylate]",0.001 to 0.999 nM
15,"CN(C)[C@@H](C(=O)N1CCC[C@H]1c1ncc(-c2ccc(-c3ccc(-c4cnc([C@@H]5CCCN5C(=O)[C@@H](c5ccccc5)N(C)C)[nH]4)nn3)cc2)[nH]1)c1ccccc1 [Example 152j-9, (1R)-2-((2S)-2-(5-(6-(4-(2-((2S)-1-((2R)-2-(dimethylamino)-2-phenylacetyl)-2-pyrrolidinyl)-1H-imidazol-5-yl)phenyl)-3-pyridazinyl)-1H-imidazol-2-yl)-1-pyrrolidinyl)-N,N-dimethyl-2-oxo-1-phenylethanamine]",1 to 99 nM
16,"CCN(CC)[C@@H](C(=O)N1CCC[C@H]1c1ncc(-c2ccc(-c3ccc(-c4cnc([C@@H]5CCCN5C(=O)[C@H](NC(=O)OC)c5ccccc5)[nH]4)c(F)c3)cc2F)[nH]1)c1ccccc1 [Example D64, methyl ((1R)-2-((2S)-2-(5-(4′-(2-((2S)-1-((2R)-2-(diethylamino)-2-phenylacetyl)-2-pyrrolidinyl)-1H-imidazol-5-yl)-3,3′-difluoro-4-biphenylyl)-1H-imidazol-2-yl)-1-pyrrolidinyl)-2-oxo-1-phenylethyl)carbamate]",0.001 to 0.999 nM
17,"COC(=O)N[C@H](C(=O)N1[C@H](c2ncc(-c3ccc(-c4ccc(-c5cnc([C@@H]6C[C@@H]7C[C@@H]7N6C(=O)[C@@H](NC(=O)OC)C(C)(C)C)[nH]5)cc4)cc3)[nH]2)C[C@@H]2C[C@@H]21)C(C)(C)C [Example M128, methyl ((1S)-1-(((1S,3S,5S)-3-(5-(4′-(2-((1S,3S,5S)-2-((2S)-2-((methoxycarbonyl)amino)-3,3-dimethylbutanoyl)-2-azabicyclo[3.1.0]hex-3-yl)-1H-imidazol-5-yl)-4-biphenylyl)-1H-imidazol-2-yl)-2-azabicyclo[3.1.0]hex-2-yl)carbonyl)-2,2-dimethylpropyl)carbamate]",1 to 99 nM
18,"CN(CC(=O)N1CCC[C@H]1c1ncc(-c2ccc(-c3ccc(-c4cnc([C@@H]5CCCN5C(=O)CN(C)Cc5ccccc5)[nH]4)cc3)cc2)[nH]1)Cc1ccccc1 [Example 24-4e, 2,2′-(4,4′-biphenyldiylbis(1H-imidazole-5,2-diyl(2S)-2,1-pyrrolidinediyl))bis(N-benzyl-N-methyl-2-oxoethanamine)]",1 to 99 nM
